# Measurements published in US10308617B2, “Triazole benzamide derivatives and the compositions and methods of treatment regarding the same” (An2H Discovery Limited, priority 2016, dated 2019).
# Target: T1, Parkin ligase (Homo sapiens, UniProt O60260)
# T1 sequence (O60260 1-465): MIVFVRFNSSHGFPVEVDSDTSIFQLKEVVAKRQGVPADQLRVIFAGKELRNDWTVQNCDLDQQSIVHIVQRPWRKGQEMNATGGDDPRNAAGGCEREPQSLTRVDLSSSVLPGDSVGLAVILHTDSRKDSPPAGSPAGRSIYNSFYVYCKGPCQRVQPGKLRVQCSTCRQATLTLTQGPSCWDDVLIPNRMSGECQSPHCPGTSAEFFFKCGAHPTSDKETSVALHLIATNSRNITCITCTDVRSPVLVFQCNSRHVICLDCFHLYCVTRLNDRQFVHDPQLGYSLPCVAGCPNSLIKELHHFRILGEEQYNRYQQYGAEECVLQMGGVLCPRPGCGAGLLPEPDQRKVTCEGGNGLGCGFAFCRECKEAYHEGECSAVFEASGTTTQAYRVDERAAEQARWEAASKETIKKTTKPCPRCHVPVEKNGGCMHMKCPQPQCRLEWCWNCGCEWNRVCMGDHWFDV
# Test: Activity-Based Probe Assay using an Ubiquitin vinyl sulfone probe (TR-FRET)
# Type: biochemical
# Conditions: Parkin activation, HA-Ub-VS probe, heat activated Parkin; read-out: Probe Assay EC50 (μM) [Example 2]
# Method: An Ubiquitin vinyl sulfone probe can be used that irreversibly binds to the active site cysteine of Parkin ligase. Covalent attachment of the probe to the Parkin can be monitored by TR-FRET. Candidate activator compounds can be identified by increasing the activity of Parkin ligase due to an increase in TR-FRET signal. Screening for activating compounds can be distinguished from the controls as follows: • 100% activation signal=Heat activated Parkin+100 nM control activator in DMSO. • 0% activation signal=Heat activated Parkin+DMSO only. • Parkin activators can be identified by an increase of the 0% activation signal TR-FRET signal.
# • Assay Plate: White 384 well plate (Corning 3572) • Enzyme: Parkin-His tagged 203 μM (10.5 mg/ml) • Probe: Ubiquitin vinyl-sulfone (HA-Ub-VS Boston Biochem U-212) • DMSO: DMSO (Sigma cat # D4540-100ML) • Reaction Buffer: 50 mM HEPES (pH 8.5), 150 mM NaCl, 0.01% Tween 20, 0.1% BSA • Detection Buffer: 50 mM HEPES (pH 8.5), 150 mM NaCl, 0.01% Tween 20, 0.1% BSA, 800 mM KF • Detection Reagent A: 2.6 nM Anti-6HIS-Eu cryptate and 40 nM Anti-HA-XL665 in detection buffer • Eu cryptate: Anti-6HIS-Eu cryptate (CisBio 61HISKLA) • XL665: Anti-HA-XL665 (CisBio 610HAXLA) Enzyme Reaction (15 min pre incubation Parkin with activator only) • Parkin: 40 nM • HA-Ub-VS Probe: 70 nM • Activator/DMSO: 2× Activator/2% DMSO • Reaction time: 60 minutes • Temperature: 22° C. • Total volume: 10 μl reaction Detection Reaction • Take 10 μl of Enzyme Reaction above and add 10 μl detection Reagent A under the following conditions: • Reaction time: 60 minutes • Temperature: 22° C. • Total volume: 20 μl
# Assay procedure (Using HP D-300 compound dispenser and Bravo for the operation): • 1) Heat activate Parkin in reaction buffer (500 μl/1.5 ml tube: Eppendorf Thermomixer 5 minutes, 400 rpm at 58° C. and put on ice until needed). • 2) Load assay plate wells with 4.8 μl 84.5 nM Parkin in reaction buffer by use of Bravo. • 3) Deliver 0.2 μl 200× activator candidates in DMSO by use of HP D-300 compound dispenser. Highest 200× concentration=[…] and then twofold dilutions. • 4) Spin 1000 rpm, 2 minutes, at room temp. • 5) Incubate plate for 15 minutes at room temp. • 6) Add 5 μl 140 nM HA-Ub-VS Probe in reaction buffer by use of Bravo. • 7) Spin 1000 rpm, 2 minutes, at room temp. • 8) Incubate plate for 60 minutes at room temp. • 9) Add 10 μl 2.6 nM Anti-6HIS-Eu cryptate and 40 nM Anti-HA-XL665 in detection buffer. • 10) Spin 1000 rpm, 2 minutes, at room temp. • 11) Incubate plate for 60 minutes at room temp. • 12) Read plates on Perkin Elmer Envision instrument with the following parameters: • LANCE dual laser protocol loaded into the Envision® software • Top Mirror: LANCE/DELFIA Duel/Bias (Bar code 446) • Emission Filter: APC 665 EM (Bar code 205) • 2nd Emission Filter: Europium 615 EM (Bar code 203) • Read 655 nm (channel 1) and 615 nm (channel 2) wavelengths on Envision®
# Data Analysis: The Data can be read in CSV files. There are two tables in those CSV files, which are the values of 655 nm (channel 1) and 615 nm (channel 2) wavelengths respectively. The data is converted to an HTRF Ratio=(Channel 1/Channel 2)*10,000
# The average of all the 0 uM controls (DMSO only)=BKGD (Background—0% activation). Subtract BKGD from each HTRF Ratio value=HTRF-BKGD. The average of all the […] 100 nM control activator in DMSO controls=Max (100% activation). The following equation is then used to calculate % Activation for each well/candidate as follows: % Activation=(HTRF-BKGD/Max)*100.
# Graphpad Prisim was used with Transform X values: X=Log(X) and nonlinear regression (dose-response-stimulation): Log(agonist) vs Response—variable slope (four parameters) with constrains set to Bottom=0 and Top=100.
# The Activity-Based Probe Assay was performed with various compounds in Tables 1-3.
row,Compound,EC50 [µM]
1,CCN(CC)c1nc(Nc2nc(NC(=O)c3ccccc3)nn2-c2ccccc2)c2ccccc2n1 [W],> 100
2,O=C(Nc1nc(Nc2cc(N3CCCC3)nc3ccccc23)n(-c2ccccc2)n1)c1ccccc1 [Compound A1],> 100
3,CC(=O)Nc1nc(NC(C)=O)n(-c2ccccc2)n1 [Compound B],> 100
4,O=C(Nc1nc(NC(=O)c2ccccc2)n(-c2cccc3ncccc23)n1)c1ccccc1 [Compound P2],> 100
5,CN(C(=O)c1ccccc1)c1nc(NC(=O)c2ccccc2)nn1-c1ccccc1 [V],> 100
6,O=C(Nc1nc(Nc2nc(N3CCCC3)c3ccccc3n2)n(-c2ccccc2)n1)c1ccccc1 [Compound B1],> 100
7,O=C(Nc1nc(Nc2nccc3ccccc23)n(-c2ccccc2)n1)c1ccccc1 [U],> 100
8,CN(C(=O)c1ccccc1)c1nc(NC(=O)c2ccccc2)n(-c2ccccc2)n1 [G],> 100
9,Cc1ccccc1C(=O)Nc1nc(NC(=O)c2ccccc2)n(-c2ccccc2)n1 [Compound H],> 100
10,Cc1ccccc1C(=O)Nc1nc(NC(=O)c2ccccc2C)n(C(C)C)n1 [Compound W2],> 100
11,O=C(Nc1nc(Nc2ncnc3ccccc23)nn1-c1ccccc1)c1ccccc1 [I],> 100
12,Cc1ccccc1-n1nc(NC(=O)c2ccccc2)nc1NC(=O)c1ccccc1 [M],> 100
13,O=C(Nc1nc(NC(=O)c2ccccc2)n(-c2cccc3cccnc23)n1)c1ccccc1 [Compound O2],> 100
14,Nc1nc(Nc2nc(NC(=O)c3ccccc3)nn2-c2ccccc2)nc2ccccc12 [Compound N1],> 100
15,Cc1ccccc1C(=O)Nc1nc(NC(=O)c2ccccc2C)n(-c2ccccn2)n1 [Compound X2],> 100
16,O=C(Nc1nc(NC(=O)c2ccccc2)n(C2CCOCC2)n1)c1ccccc1 [Compound I2],> 100
17,C=CC(=O)Nc1nc(NC(=O)c2ccccc2)nn1-c1ccccc1 [Compound L2],> 100
18,O=C(Nc1nc(NC(=O)c2nc3ccccc3s2)n(-c2ccccc2)n1)c1ccccc1 [Compound M2],> 100
19,O=C(Nc1nc(Nc2nc(O)nc3ccccc23)n(-c2ccccc2)n1)c1ccccc1 [Compound E1],> 100
20,CCN(CC)c1nc(Nc2nc(NC(=O)c3ccccc3)nn2-c2ccccc2)nc2ccccc12 [X],> 100
21,CN(C(=O)c1ccccc1)c1nc(N(C)C(=O)c2ccccc2)n(-c2ccccc2)n1 [J],> 100
22,Cc1ccccc1C(=O)Nc1nc(-c2ccncc2)nn1-c1ccccc1 [Compound S2],> 100

# The remaining lines, values ahead:
row,EC50 [µM],Compound
1,2,O=C(Nc1nc(NC(=O)c2cccs2)nn1-c1ccccc1)c1ccccc1 [Compound G2]
2,> 100,O=C(Nc1nc(-c2ccccn2)nn1-c1ccccc1)c1ccccc1 [T]
3,1,O=C(Nc1nc(NC(=O)c2ccccc2)n(-c2ccc(OC(F)(F)F)cc2)n1)c1ccccc1 [Compound Z1]
4,12,COc1ccc(-n2nc(NC(=O)c3ccccc3)nc2NC(=O)c2ccccc2)cc1 [Compound F2]
5,50,O=C(Nc1nc(NC(=O)c2cc3ccccc3s2)n(-c2ccccc2)n1)c1ccccc1 [Compound A2]
6,25.9,O=C(/C=C/c1ccccc1)Nc1nc(NC(=O)c2ccccc2)nn1-c1ccccn1 [Compound U1]
7,6,Cc1ccccc1C(=O)Nc1nc(NC(=O)c2cccs2)nn1-c1ccccc1 [Compound K2]
8,4,Cc1ccccc1C(=O)Nc1nc(NC(=O)/C=C/c2ccccc2)n(-c2ccccc2)n1 [Compound C2]
9,37,C/C=C/C(=O)Nc1nc(Nc2ncnc3ccccc23)n(-c2ccccc2)n1 [Compound L1]
10,38.9,CN1CCC(C(=O)Nc2nc(Nc3ncnc4ccccc34)n(-c3ccccc3)n2)CC1 [Compound D1]
11,4,O=C(Nc1nc(NC(=O)c2ccc3ccccc3n2)n(-c2ccccc2)n1)c1ccccc1 [Compound B2]
12,89,O=C(Nc1nc(NC(=O)c2ccccc2)n(-c2ccc3ccccc3n2)n1)c1ccccc1 [Compound D2]
13,9.2,CC(C)C(=O)Nc1nc(Nc2ncnc3ccccc23)n(-c2ccccc2)n1 [Compound K1]
14,6,O=C(Nc1nc(NC(=O)c2ccccc2)n(-c2ccc3ncccc3c2)n1)c1ccccc1 [Compound J2]
15,26,Cc1ccccc1C(=O)Nc1nc(-c2ccccn2)nn1-c1ccccc1 [Compound Q2]
16,6,O=C(Nc1nc(NC(=O)c2ccccc2)n(-c2ccc3c(c2)OCCO3)n1)c1ccccc1 [Compound E2]
17,3,Cc1ccccc1C(=O)Nc1nc(-c2ccccn2)nn1-c1ccc(OC(F)(F)F)cc1 [Compound H3]
18,2,"O=C(Nc1nc(-c2ccccn2)nn1-c1ccccc1)c1ccccc1 [Compound Y1, N-(1-phenyl-3-(pyridin-2-yl)-1H-1,2,4-triazol-5-yl)benzamide]"
19,9.1,O=C(Nc1nc(Nc2ncnc3ccccc23)n(-c2ccccc2)n1)c1ccco1 [Z]
20,62,O=C(Nc1nc(NC(=O)c2ccccc2)n(-c2ccc(-c3ccccc3)cc2)n1)c1ccccc1 [Compound X1]
21,1.8,"O=C(Nc1nc(Nc2ncnc3ccccc23)n(-c2ccccc2)n1)c1ccccc1 [Compound L, N-[1-phenyl-5-(quinazolin-4-ylamino)-1,2,4-triazol-3-yl]benzamide]"
22,3,"Cc1ccc(-c2nc(NC(=O)c3ccccc3C)n(-c3ccccc3)n2)nc1 [Compound R3, 2-methyl-N-(3-(5-methylpyridin-2-yl)-1-phenyl-1H-1,2,4-triazol-5-yl)benzamide]"
23,3,"Cc1ccccc1C(=O)Nc1nc(-c2ncccc2C)nn1-c1ccccc1 [Compound S3, 2-methyl-N-(3-(3-methylpyridin-2-yl)-1-phenyl-1H-1,2,4-triazol-5-yl)benzamide]"
24,11.9,C=C(C)C(=O)Nc1nc(Nc2ncnc3ccccc23)n(-c2ccccc2)n1 [Compound M1]
25,4,Cc1ccccc1C(=O)Nc1nc(NC(=O)c2ccccc2C)n(-c2ccc(Cl)cc2)n1 [Compound Q3]
26,15.3,"O=C(Nc1nc(NC(=O)c2ccccc2)n(-c2ccc(I)cc2)n1)c1ccccc1 [Compound E, N-[5-benzamido-1-(4-iodophenyl)-1,2,4-triazol-3-yl]benzamide]"
27,10.4,O=C(Nc1nc(NC(=O)c2ccco2)n(-c2ccccc2)n1)c1ccccc1 [Compound W1]
28,10.8,"Cc1ccccc1C(=O)Nc1nc(NC(=O)c2ccccc2)nn1-c1ccccc1 [Compound K, N-(5-benzamido-2-phenyl-1,2,4-triazol-3-yl)-2-methyl-benzamide]"
